Results taken from paper PMC4130425, “Therapeutic drug monitoring of voriconazole: a case report of multiple drug interactions in a patient with an increased CYP2C19 activity” (AIDS Research and Therapy, 2014).
Like-named read-outs stand apart in the source and are kept apart here.

Assays:
[1] = set-up: method as in PMID 22751544; settings: target trough range; cited from earlier work
[2] = human, in vivo
Protocol: The patient was genotyped for CYP2C19.
Time course of (A) voriconazole i. v. dosage administration, (B) comedication with esomeprazole or ranitidine and (C) associated antiretroviral therapy. Voriconazole plasma trough concentrations. qd: once a day; b.i.d.: Twice a day.
Ranitidine was replaced by esomeprazole 40 mg IV bid.

CYP2C19 = target: T1, CYP2C19 (Homo sapiens, UniProt P33261); assay: CYP2C19 phenotyping with 2 mg omeprazole (omeprazole metabolic ratio); type: in vivo; settings: while on CYP2C19 inhibitor esomeprazole, cut-off = 5, showed decreased CYP2C19 activity
T1 construct: endogenous in cells; host or cells: patient in vivo (endogenous enzyme)
T1 sequence (P33261 whole entry): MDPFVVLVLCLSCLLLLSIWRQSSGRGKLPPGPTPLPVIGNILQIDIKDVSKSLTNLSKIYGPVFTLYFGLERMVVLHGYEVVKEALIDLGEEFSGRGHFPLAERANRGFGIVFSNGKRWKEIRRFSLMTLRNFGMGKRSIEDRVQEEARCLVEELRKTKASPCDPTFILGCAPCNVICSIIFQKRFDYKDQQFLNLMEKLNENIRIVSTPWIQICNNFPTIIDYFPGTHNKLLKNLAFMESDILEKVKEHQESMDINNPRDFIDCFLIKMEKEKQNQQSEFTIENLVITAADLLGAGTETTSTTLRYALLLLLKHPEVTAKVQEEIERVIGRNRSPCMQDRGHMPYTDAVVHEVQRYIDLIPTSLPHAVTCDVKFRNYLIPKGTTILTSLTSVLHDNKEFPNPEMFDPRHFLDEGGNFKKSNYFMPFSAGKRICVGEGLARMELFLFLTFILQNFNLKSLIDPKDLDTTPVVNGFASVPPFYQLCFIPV

SMILES	Voriconazole C0 therapeutic range [1] [ng/mL]	Voriconazole first trough concentration (C0) ([2]; female) [ng/mL]	Voriconazole C0 versus therapeutic range [2]	Voriconazole C0 versus therapeutic range ([2]; 2.5 mg/kg)	omeprazole metabolic ratio (CYP2C19)
C[C@@H](c1ncncc1F)[C@](O)(Cn1cncn1)c1ccc(F)cc1F [Voriconazole]	1000 to 5000	< 1000	below the therapeutic range	within the therapeutic range	
COc1ccc2[nH]c([S+]([O-])Cc3ncc(C)c(OC)c3C)nc2c1 (centres unmarked) [omeprazole]					10.5
